# What was measured:
# Test in all cases: NCI-60 one-dose screening
# Assay type in all cases: cell-based
# [1] = system: 786-0; conditions: Homo sapiens, 786-0, Renal Cancer, read-out: GI (%)
# Protocol: (§1) Compounds 5a–c and 6a–o were tested using standard NCI protocols for in vitro activity at the National Cancer Institute (NCI, Bethesda, Maryland, USA), wherein compounds were tested using one single concentration of 10 μM against 60 cell lines of nine different cancer types. […] Excellent activity was observed against a single NSCLC cell line, EKVX, for compounds 5a–c (GIs = 77–86%, Table 1) with no observed activity for indoles with substituted vanillin 6a–o.
# (§2) Anticancer activity was tested against 60 cancer cell lines at the NCI, Bethesda, USA. The screening process was done with a single dosage of 10 μM according to NCI protocols published on the NCI website https://dtp.cancer.gov/discovery_development/nci-60/methodology.htm.
# [2] = system: A498; conditions: Homo sapiens, A498, Renal Cancer, read-out: GI (%)
# Protocol: as §1, §2
# [3] = system: ACHN; conditions: Homo sapiens, Renal Cancer, read-out: GI (%)
# Protocol: as §1, §2
# [4] = system: CCRF-CEM; conditions: Homo sapiens, Leukemias, read-out: GI (%)
# Protocol: as §1, §2
# [5] = system: COLO 205; conditions: Homo sapiens, COLO 205, Colon Cancer, read-out: GI (%)
# Protocol: as §1, §2
# [6] = system: DU-145; conditions: Homo sapiens, DU-145, Prostate Cancer, read-out: GI (%)
# Protocol: as §1, §2
# [7] = system: HCT-116; conditions: Homo sapiens, HCT-116, Colon Cancer, read-out: GI (%)
# Protocol: as §1, §2
# [8] = system: HCT-15; conditions: Homo sapiens, HCT-15, Colon Cancer, read-out: GI (%)
# Protocol: as §1, §2
# [9] = system: HOP-62; conditions: Homo sapiens, HOP-62, Non-Small Cell Lung Cancer, read-out: GI (%)
# Protocol: as §1, §2
# [10] = system: HOP-92; conditions: Homo sapiens, HOP-92, Non-Small Cell Lung Cancer, read-out: GI (%)
# Protocol: as §1, §2
# [11] = system: HT29; conditions: Homo sapiens, HT-29, HT29, Colon Cancer, read-out: GI (%)
# Protocol: as §1, §2
# [12] = system: IGROV1; conditions: Homo sapiens, IGROV-1, IGROV1, Ovarian Cancer, read-out: GI (%)
# Protocol: as §1, §2
# [13] = system: K-562; conditions: Homo sapiens, K562, K-562, Leukemias, read-out: GI (%)
# Protocol: as §1, §2
# [14] = system: KM12; conditions: Homo sapiens, KM12, Colon Cancer, read-out: GI (%)
# Protocol: as §1, §2
# [15] = system: LOX IMVI; conditions: Homo sapiens, Melanoma, read-out: GI (%)
# Protocol: as §1, §2
# [16] = system: MALME-3M; conditions: Homo sapiens, Melanoma, read-out: GI (%)
# Protocol: as §1, §2
# [17] = system: MCF7; conditions: Homo sapiens, MCF7, 10 μM; MCF7, Breast Cancer; read-out: GI (%)
# Protocol: as §1, §2
# [18] = system: MDA-MB-231/ATCC; conditions: Homo sapiens, Breast Cancer, read-out: GI (%)
# Protocol: as §1, §2
# [19] = system: MDA-MB-435; conditions: Homo sapiens, MDA-MB-435, Melanoma, read-out: GI (%)
# Protocol: as §1, §2
# [20] = system: MDA-MB-468; conditions: Homo sapiens, MDA-MB-468, Breast Cancer, read-out: GI (%)
# Protocol: as §1, §2
# [21] = system: NCI-H226; conditions: Homo sapiens, NCI-H226, Non-Small Cell Lung Cancer, read-out: GI (%)
# Protocol: as §1, §2
# [22] = system: NCI-H322M; conditions: Homo sapiens, Non-Small Cell Lung Cancer, read-out: GI (%)
# Protocol: as §1, §2
# [23] = system: NCI-H460; conditions: Homo sapiens, NCI-H460, Non-Small Cell Lung Cancer, read-out: GI (%)
# Protocol: as §1, §2
# [24] = system: OVCAR-5; conditions: Homo sapiens, OVCAR-5, Ovarian Cancer, read-out: GI (%)
# Protocol: as §1, §2
# [25] = system: OVCAR-8; conditions: Homo sapiens, OVCAR-8, Ovarian Cancer, read-out: GI (%)
# Protocol: as §1, §2
# [26] = system: PC-3; conditions: Homo sapiens, PC-3, Prostate Cancer, read-out: GI (%)
# Protocol: as §1, §2
# [27] = system: RPMI-8226; conditions: Homo sapiens, RPMI-8226, Leukemias, read-out: GI (%)
# Protocol: as §1, §2
# [28] = system: SF-539; conditions: Homo sapiens, SF-539, CNS Cancer, read-out: GI (%)
# Protocol: as §1, §2
# [29] = system: SK-OV-3; conditions: Homo sapiens, SK-OV-3, Ovarian Cancer, read-out: GI (%)
# Protocol: as §1, §2
# [30] = system: SN12C; conditions: Homo sapiens, Renal Cancer, read-out: GI (%)
# Protocol: as §1, §2
# [31] = system: SNB-75; conditions: Homo sapiens, SNB-75, CNS Cancer, read-out: GI (%)
# Protocol: as §1, §2
# [32] = system: SR; conditions: Homo sapiens, Leukemias, read-out: GI (%)
# Protocol: as §1, §2
# [33] = system: SW-620; conditions: Homo sapiens, SW-620, Colon Cancer, read-out: GI (%)
# Protocol: as §1, §2
# [34] = system: TK-10; conditions: Homo sapiens, TK-10, Renal Cancer, read-out: GI (%)
# Protocol: as §1, §2
# [35] = system: U251; conditions: Homo sapiens, U-251, U251, CNS Cancer, read-out: GI (%)
# Protocol: as §1, §2
# [36] = system: UACC-257; conditions: Homo sapiens, UACC-257, Melanoma, read-out: GI (%)
# Protocol: as §1, §2
Compound,inhibition at 10 µM [1],inhibition at 10 µM [2],inhibition at 10 µM [3],inhibition at 10 µM [5],inhibition at 10 µM [6],inhibition at 10 µM [7],inhibition at 10 µM [8],inhibition at 10 µM [9],inhibition at 10 µM [10],inhibition at 10 µM [11],inhibition at 10 µM [12],inhibition at 10 µM [13],inhibition at 10 µM [14],inhibition at 10 µM [15],inhibition at 10 µM [16],inhibition at 10 µM [17],inhibition at 10 µM [18],inhibition at 10 µM [19],inhibition at 10 µM [20],inhibition at 10 µM [21],other results
COc1ccc(COc2ccc(/C=C3/C(=O)Nc4ccccc43)cc2OC)cc1 [6d],-4.67%,-10.3%,7.61%,-22.9%,-8.53%,-8.46%,-4.57%,-0.03%,-1%,-7.81%,-7.35%,-0.85%,-3.98%,3.43%,0.29%,6%,0.09%,-6.21%,-0.39%,-3.18%,inhibition at 10 µM [4]: -3.81%; inhibition at 10 µM [22]: -5.76%; inhibition at 10 µM [23]: -2.81%; inhibition at 10 µM [24]: 0.08%; inhibition at 10 µM [25]: -0.59%; inhibition at 10 µM [26]: 4.22%; inhibition at 10 µM [27]: -4.4%; inhibition at 10 µM [28]: 4.08%; inhibition at 10 µM [29]: -19.1%; inhibition at 10 µM [30]: 0.36%; inhibition at 10 µM [31]: 2.65%; inhibition at 10 µM [32]: -1.92%; inhibition at 10 µM [33]: 0.87%; inhibition at 10 µM [34]: -13.4%; inhibition at 10 µM [35]: -9.05%; inhibition at 10 µM [36]: -15.9%
COc1cc(C=C2C(=O)Nc3cc(Cl)ccc32)ccc1OCc1ccc(Cl)cc1 (mixture of isomers) [6l],-7.1%,5.41%,7.13%,-13.1%,-3.93%,5.08%,6.77%,4.49%,15.3%,-5.54%,27.7%,9.88%,3.74%,-8.24%,2.26%,50 to 65%,8.37%,-5.52%,4.61%,4.89%,inhibition at 10 µM [4]: 3.42%; inhibition at 10 µM [22]: 4.89%; inhibition at 10 µM [23]: 9.67%; inhibition at 10 µM [24]: -2.97%; inhibition at 10 µM [25]: 2.85%; inhibition at 10 µM [26]: 11.1%; inhibition at 10 µM [27]: 11.9%; inhibition at 10 µM [28]: 8.46%; inhibition at 10 µM [29]: -0.69%; inhibition at 10 µM [30]: 1.62%; inhibition at 10 µM [31]: -3.14%; inhibition at 10 µM [32]: 4.64%; inhibition at 10 µM [33]: 2.57%; inhibition at 10 µM [34]: -59.6%; inhibition at 10 µM [35]: -5.85%; inhibition at 10 µM [36]: -8.7%
COc1cc(/C=C2/C(=O)Nc3cc(Cl)ccc32)ccc1OCc1ccc(F)cc1 [6m],-7.88%,5.75%,6.43%,-10.2%,-4.25%,7.12%,10.9%,4.08%,10.8%,-5.1%,27.3%,2.33%,-2.27%,6.49%,7.28%,42.9%,7.87%,-3.13%,7.02%,8.79%,inhibition at 10 µM [22]: 1.78%; inhibition at 10 µM [23]: 1.02%; inhibition at 10 µM [24]: 1.44%; inhibition at 10 µM [25]: 1.34%; inhibition at 10 µM [26]: 13%; inhibition at 10 µM [27]: -13.2%; inhibition at 10 µM [28]: 4.99%; inhibition at 10 µM [29]: 2.75%; inhibition at 10 µM [30]: 4.13%; inhibition at 10 µM [31]: -4.47%; inhibition at 10 µM [32]: 2.45%; inhibition at 10 µM [33]: 1.76%; inhibition at 10 µM [34]: -85.2%; inhibition at 10 µM [35]: -10.6%; inhibition at 10 µM [36]: -9.31%

# — paper PMC9948168, “Vanillin-Based Indolin-2-one Derivative Bearing a Pyridyl Moiety as a Promising Anti-Breast Cancer Agent via Anti-Estrogenic Activity” (ACS Omega, 2023)
